Structures are written as SMILES. In brackets after ≈: the same amount, converted by molar mass. Read-outs that look alike come from different tables or passages of the source.

Data set [1] addresses T1, glucocerebrosidase (Gcase) (Homo sapiens, UniProt P04062).
T1 sequence (P04062 40-536): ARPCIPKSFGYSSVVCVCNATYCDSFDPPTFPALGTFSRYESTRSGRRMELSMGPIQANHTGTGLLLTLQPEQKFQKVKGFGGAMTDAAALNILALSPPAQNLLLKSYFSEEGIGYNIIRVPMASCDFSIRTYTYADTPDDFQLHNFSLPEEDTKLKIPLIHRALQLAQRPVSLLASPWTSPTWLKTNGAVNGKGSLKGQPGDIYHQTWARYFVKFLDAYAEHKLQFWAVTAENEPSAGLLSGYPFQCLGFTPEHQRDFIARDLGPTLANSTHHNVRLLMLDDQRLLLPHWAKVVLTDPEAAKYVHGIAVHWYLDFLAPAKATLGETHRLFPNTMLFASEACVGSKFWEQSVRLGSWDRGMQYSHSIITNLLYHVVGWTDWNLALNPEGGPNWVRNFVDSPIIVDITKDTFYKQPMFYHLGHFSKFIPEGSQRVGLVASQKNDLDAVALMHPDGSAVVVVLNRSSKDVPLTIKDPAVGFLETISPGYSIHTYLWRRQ
In words: Glucocerebrosidase (Gcase) activation assay, 4-methylumbelliferyl-beta-D-glucopyranoside substrate, with saposin C. The data set is classed as biochemical. In short, it runs like this: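 Compounds tested at 1.0 and 0.1 μM, then in 8-point 3-fold curves, were pre-incubated 30 min at room temperature with 10 nM GCase plus 100 nM saposin C in PS/triton micelles, pH 4.7. Reaction with substrate (2 mM in micelles before mixing) ran 15 min; stopped at pH 12.5, read at ex 365/em 440 nm.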

Data set [2] can be described thus: Compound solubility in water. The format is physicochemical.
Setting [3] is: test compound at 0.1 μM, read-out: Percent Gcase Activation, 0.1 μM Test Compound.
[4] abbreviates: test compound at 1.0 μM, read-out: Percent Gcase Activation, 1 μM Test Compound.
Setting [5] is: 0.1 μM test compound, read-out: Percent Gcase Activation 0.1 μM Test Compound.
Setting [6] is: 1 μM test compound, read-out: Percent Gcase Activation 1 μM Test Compound.

For `COc1ccc(F)c(-c2cc(C)n3cnc(C(=O)NC(C)C(F)(F)F)c3n2)c1` (stereo not drawn) [IV-104], the activation at 0.1 µM in data set [1] (setting [3]) is over 20%. In data set [1] (setting [4]), the activation at 1 µM is over 60%. This compound gave a solubility in data set [2] (in water) of 0.7 µg/mL (≈ 1.77 µM).
`COc1cc(F)cc(-c2cc(C)n3cnc(C(=O)N[C@@H](C)C4CC4)c3n2)c1` [IV-56]: in data set [1] (setting [3]), the activation at 0.1 µM was over 20%. Moreover, in data set [1] (setting [4]), the activation at 1 µM was over 60%. The same compound displayed a solubility in data set [2] (in water) of 3.7 µg/mL (≈ 10 µM).
In the case of `Cc1cc(-c2ccc3ocnc3c2)nc2c(C(=O)N[C@@H](C)C3CC3)ncn12` [III-130], the activation at 0.1 µM in data set [1] (setting [5]) was over 20%. Moreover, the activation at 1 µM in data set [1] (setting [6]) is over 60%. For the same compound, in data set [2], the solubility is 7.7 µg/mL (≈ 21.3 µM).
`CCCCO[C@H]1C[C@H]2CC[C@@H](C1)[C@@H]2NC(=O)c1ncn2c(COC)cc(C)nc12` [IV-3]: the activation at 0.1 µM in data set [1] (setting [3]) is under 10%. Besides, the activation at 1 µM in data set [1] (setting [4]) lay in the range of 30 to 60%. The compound also yielded a solubility in data set [2] (in water) of 15.3 µg/mL (≈ 38.2 µM).
In the case of `Cc1cc(-c2cccc(F)c2)nc2c(C(=O)NC(C)(C)C3CC3)ncn12` [III-109], the activation at 0.1 µM in data set [1] (setting [5]) was over 20%. The activation at 1 µM in data set [1] (setting [6]) was over 60%. In data set [2], the solubility came to 1.1 µg/mL (≈ 3.12 µM).
On the same counts, the results for `Cc1cc(-c2cc(F)ccc2F)nc2c(C(=O)N[C@@H](C)C3CC3)ncn12` [III-112] are over 20%, over 60% and 5.5 µg/mL (≈ 15.4 µM).
Regarding `C#CC(NC(=O)c1ncn2c(C)cc(-c3ccccc3C#N)nc12)C(F)(F)F` (stereo not drawn) [IV-23], in data set [1] (setting [3]), the activation at 0.1 µM is 10 to 20%. Further, in data set [1] (setting [4]), the activation at 1 µM was over 60%. In data set [2] (in water), this compound yielded a solubility of 0.6 µg/mL (≈ 1.57 µM).
On to `Cc1cc(OC2CCC2)nc2c(C(=O)NC(C3CC3)C3CC3)ncn12` [III-180], for which, in data set [1] (setting [5]), the activation at 0.1 µM was 10 to 20%. The activation at 1 µM in data set [1] (setting [6]) was over 60%. Also, the solubility in data set [2] came out at 23.3 µg/mL (≈ 68.4 µM).
On the same counts, the results for `CCCO[C@H]1CC[C@H](NC(=O)c2ncn3c(C)cc(-c4cccnc4)nc23)CC1` [III-65] are under 10%, under 30% and 15.4 µg/mL (≈ 39.1 µM).
For `Cc1cc(-c2cnsc2)nc2c(C(=O)N[C@H](C3CC3)C(F)(F)F)ncn12` [IV-52], in data set [1] (setting [3]), the activation at 0.1 µM lay in the range of 10 to 20%. Further, in data set [1] (setting [4]), the activation at 1 µM is over 60%. Besides, the solubility in data set [2] (in water) was found to be 15.4 µg/mL (≈ 40.4 µM).
For `COc1cc(F)cc(-c2cc(C)n3cnc(C(=O)NC(C4CC4)C(F)(F)F)c3n2)c1` (stereo not drawn) [III-170], the activation at 0.1 µM in data set [1] (setting [5]) is over 20%. Besides, the activation at 1 µM in data set [1] (setting [6]) was over 60%. In addition, in data set [2], the solubility is 0.1 µg/mL (≈ 0.237 µM).
On to `COc1cccc(-c2cc(C)n3cnc(C(=O)N[C@@H](C)C4CC4)c3n2)c1C#N` [IV-68], for which the activation at 0.1 µM in data set [1] (setting [3]) is over 20%. For the same compound, the activation at 1 µM in data set [1] (setting [4]) was over 60%. This compound also returned a solubility in data set [2] (in water) of 0.7 µg/mL (≈ 1.86 µM).
With `C#Cc1ccc(NC(=O)c2ncn3c(C4CCCC4)cc(C)nc23)cc1` [III-1], in data set [1] (setting [5]), the activation at 0.1 µM was in the range of 10 to 20%. Further, in data set [1] (setting [6]), the activation at 1 µM was 30 to 60%. Further, in data set [2], the concentration in solution (solubility) was 0.2 µg/mL (≈ 0.581 µM).
Consider `Cc1cc(-c2ccncc2)nc2c(C(=O)NC(CC(C)C)C3CC3)ncn12` (stereo not drawn) [III-28], for which the activation at 0.1 µM in data set [1] (setting [5]) was under 10%. The activation at 1 µM in data set [1] (setting [6]) was over 60%. In data set [2], the solubility turned out to be 19.7 µg/mL (≈ 54.2 µM).
On to `Cc1cc(NC(=O)c2ccccc2)nc2c(C(=O)NC(C3CC3)C(F)(F)F)ncn12` (stereo not drawn) [IV-6], for which, in data set [1] (setting [3]), the activation at 0.1 µM was under 10%. In addition, the activation at 1 µM in data set [1] (setting [4]) was in the range of 30 to 60%. Besides, in data set [2] (in water), the solubility came out at 15.1 µg/mL (≈ 36.2 µM).
For `Cc1cc(-c2cccc3scnc23)nc2c(C(=O)NC(C3CC3)C(F)(F)F)ncn12` (stereo not drawn) [IV-47], in that order: under 10%, 30 to 60% and 3.8 µg/mL (≈ 8.81 µM).
Regarding `Cc1cc(-c2ccc(C#N)o2)nc2c(C(=O)NC(C3CC3)C(F)(F)F)ncn12` (stereo not drawn) [IV-33], the activation at 0.1 µM in data set [1] (setting [3]) was over 20%. Further, the activation at 1 µM in data set [1] (setting [4]) is over 60%. In addition, the solubility in data set [2] (in water) worked out at 0.7 µg/mL (≈ 1.8 µM).
Take `COc1cccc(-c2cc(C)n3cnc(C(=O)NC(C)(C)C4CC4)c3n2)n1` [III-146]: in data set [1] (setting [5]), the activation at 0.1 µM was over 20%. In data set [1] (setting [6]), the activation at 1 µM was over 60%. This compound also had a solubility in data set [2] of 0.9 µg/mL (≈ 2.46 µM).

These data come from patent US9920061B2, “Imidazo[1,5-A]pyrimidinyl carboxamide compounds and their use in the treatment of medical disorders” (Lysosomal Therapeutics Inc., priority 2016, dated 2018).
